Measured values from patent US20240002351A1, “QUINAZOLIN-4-ONE AND THIENO[2,3-D]PYRIMIDIN-4-ONE INHIBITORS OF ERBB4 (HER4) FOR USE IN THE TREATMENT OF CANCER” (UNIVERSITEIT ANTWERPEN, priority 2021, published 2024).

What was measured:
[1] = test system: Human atrial cardiac fibroblasts (HCF); experiment: In vitro fibrosis assay, TGFβ-stimulated HCF (qRT-PCR); type: cell-based; details: TGFβ 10 ng/mL, 24 hours (FIG. 9)
Protocol: (§1) Human dermal fibroblasts (HDF, Cell applications, 106-05A) were cultured in Dulbecco's modified Eagle's medium (DMEM, ThermoFisher Scientific, 11995065) supplemented with 10% (v/v) heat-inactivated fetal bovine serum (FBS, ThermoFisher Scientific, 10082147), 1% penicillin/streptomycin and 1 mL polymyxin B and were maintained at 37° C. in humidified atmosphere of 5% CO2 in air. Human atrial cardiac fibroblasts (HCF, Innoprot, P10454) were cultured in fibroblast medium (Innoprot, P60108) supplemented with fetal bovine serum, fibroblast growth supplement and penicillin/streptomycin and were maintained at 37° C. in humidified atmosphere of 5% CO2 in air.
Following 1-9 passages, HDF and HCF were seeded at 0.3×10^6 cells/well in 1 mL cell medium in 12-well plates and incubated overnight at 37° C. in humidified atmosphere of 5% CO2 in air. Next, cells were put on serum starved medium (0.1% FBS) for 8 hours and then stimulated for 24 hours with either PBS, active compound (4-32 μM) or non-active compound (NA1, NA2; 4-32 μM) on top of TGFβ (10 ng/mL, Peprotech, 100-21). […] Next, cells were lysed using 100 μL lysis buffer RA1 (of RNA isolation kit below) supplemented with β-mercapto-ethanol (100:1), scraped with a cell scraper and transferred to centrifuge tubes to be stored at −20° C. for a maximum of 2 weeks before RNA isolation.
RNA was extracted using Nucleospin RNA XS (Machery Nagel) according to the manufacturer's instructions. For cDNA synthesis, total RNA was added to a solution containing buffer with random hexamers and reverse transcriptase enzyme. The PCR was performed using the following parameters: 10 minutes at 25° C., 30 minutes at 48° C., 5 minutes at 95° C. RT-qPCR on the cDNA samples was performed using Taqman Universal PCR Master Mix (Applied Biosystems) and Taqman primers according to the manufacturer's instructions. […] Expression levels were calculated using the comparative cycle method and expressed as fold change to appropriate (background) control. […]

[2] = test system: C57BL/6N male mice; experiment: In vivo anti-fibrotic capacity, Angiotensin II left ventricular remodeling mouse model
Protocol: Left ventricular (LV) remodeling was induced in 13-week old C57BL/6N male mice by Angiotensin II (AngII, 1000 ng/kg/min, Sigma Aldrich) using a subcutaneous micro-osmotic pump (model 1004, Alzet). Next to AngII, the mice were also given a second s.c. micro-osmotic pump filled with selected hit compound (83 μg/kg/h) or vehicle. Control groups (sham, compound alone, AngII alone) were also implemented. After 4 weeks of treatment, mice were euthanized and hearts were collected.
Hearts were fixed and embedded in paraffin. The LV interstitial collagen fraction was determined in Masson trichrome blue-stained areas. Cardiomyocyte outlines were stained with antibodies specific for laminin (NB300-144; Novus Biologicals), and cardiomyocyte cross-sectional area was determined by averaging 20 representative cardiomyocytes per section per animal (5 sections/animal). Data was skewed, therefore log transformation was performed. Endothelial cells were stained with isolectin B4 (Vector Laboratories) and capillary density was determined as the number of capillaries per 100 cardiomyocytes by averaging the number of capillaries per cardiomyocytes on 5 images per animal. Capillaries and cardiomyocytes were counted (by an investigator blinded to the treatment protocol) per section per animal (5 sections/animal). Capillaries were normalized to tissue area to calculate capillary density.

[3] = test system: C57BL/6N mice; experiment: In vivo acute toxicity study; details: accumulative i.p. doses, hematoxylin and eosin staining (FIG. 15)
Protocol: An acute toxicity study was performed on C57BL/6N mice using accumulative doses of compound 1 (n=3) or vehicle (n=3, 10% DMSO). On day 1, mice received 0.4 mg/kg cpd 1, day 2 1.2 mg/kg, day 3 4 mg/kg, day 4 4 mg/kg by intraperitoneal injection. At day 4, 1 hour after injection of 4 mg/kg, the mice were sacrificed and the hearts, liver, and kidney excised. The histology of the organs was evaluated by hematoxylin and eosin staining.

[4] = test system: Human dermal fibroblasts (HDF); experiment: In vitro fibrosis assay, TGFβ-stimulated HDF (qRT-PCR); type: cell-based; details: TGFβ 10 ng/mL, 4-32 μM (FIGS. 8C-8F)
Protocol: as §1
Following 1-9 passages, HDF and HCF were seeded at 0.3×10^6 cells/well in 1 mL cell medium in 12-well plates and incubated overnight at 37° C. in humidified atmosphere of 5% CO2 in air. Next, cells were put on serum starved medium (0.1% FBS) for 8 hours and then stimulated for 24 hours with either PBS, active compound (4-32 μM) or non-active compound (NA1, NA2; 4-32 μM) on top of TGFβ (10 ng/mL, Peprotech, 100-21). […]
RNA was extracted using Nucleospin RNA XS (Machery Nagel) according to the manufacturer's instructions. […] Expression levels were calculated using the comparative cycle method and expressed as fold change to appropriate (background) control. […]

[5] = Metabolic stability, human liver microsomes; type: in vitro ADME
Protocol: A mixture of 713 μL milliQ water (Millipore, MA, USA), 200 μL 0.5 M phosphate buffer (pH 7.4, BD Diagnostic Systems, MD, USA), 50 μL NADPH regenerating system solution A (BD Biosciences, CA, USA), 10 μL NADPH regenerating system solution B (BD Biosciences, CA, USA) and 2 μL compound (5 mM in DMSO) was prepared and heated for 5 min at 37° C. Twenty-five μL of liver microsomes (0.5 mg protein/mL, Corning B.V. Life Sciences, Amsterdam, Netherlands) was added to the mixture and 20 μL samples were withdrawn at 0, 0.25, 0.5 and 1, 2, 4, 6 and 24 hours. Eighty μL (4×20 μL) of cold acetonitrile (Sigma-Aldrich, MO, USA) was added to the samples on ice for 10 min. Afterwards, the mixtures were centrifuged at 13,000 rpm for 5 min at 4° C. Seventy-five μL of an acetonitrile/water (10/90) mixture was added to 25 μL supernatant and the obtained samples were analyzed by LC-MS/MS (Waters Acquity H-class UPLC system with ion trap mass spectrometer, Bruker Daltonics Esquire 3000 plus, and Agilent 1100 Series LC system) in triplicate.

SMILES	col1a1 levels in comparison with TGFβ control [1]	capillary density compared to vehicle ([2]; 4 weeks (FIG. 14D))	myocardial fibrosis compared to angiotensin II/vehicle ([2]; AngII 1000 ng/kg/min + compound 83 μg/kg/h s.c. pump, 4 weeks (FIG. 14A))	HW:BW ratio ([2]; add-on to angiotensin II, 4 weeks (FIG. 14B))	cardiomyocyte cross sectional area compared to angiotensin II/vehicle ([2]; add-on to angiotensin II, 4 weeks (FIG. 14C))	histology of heart, liver and kidney (treated vs control group) [3]	antifibrotic effect (col1a1 and col3a1 levels) [4]	t1/2 human ([5]; human liver microsomes) [min]	half-life at 10 µM ([5]; human, liver microsomes, pH 7.4, human liver microsomes, read-out: t1/2 human) [min]	col3a1 levels in comparison with TGFβ control [1]
O=C(NC1CC1)C(Sc1nc2ccccc2c(=O)n1C1CCCC1)c1ccccc1 (centres unmarked) [Compound 1]	significantly decrease col1a1 levels	significantly increased capillary density	significantly attenuated myocardial fibrosis	no effect	did increase	no significant difference in structures of cardiac, liver and renal cells	–	–	–	–
Cc1sc2nc(SC(C)C(=O)Nc3sccc3C(N)=O)n(CC(C)C)c(=O)c2c1C (centres unmarked) [Compound 6]	–	–	–	–	–	–	significant dose-dependent antifibrotic effects	17	17 to 18	–
CC(Sc1nc2ccccc2c(=O)n1C1CCCC1)c1nc2ccccc2n1C(F)F (centres unmarked) [Compound 7]	–	–	–	–	–	–	significant dose-dependent antifibrotic effects	–	–	significantly decreases col3a1 levels
